Consider four molecules from ChEMBL document CHEMBL1201862, “PubChem BioAssay data set” (2004).

Structures are written as SMILES. Active and inactive are the calls of the source.

The target of data set [1] is E3 ubiquitin-protein ligase XIAP (Homo sapiens, UniProt P98170). As to the kind of experiment: Counter Screen using XIAP-Bir3 for Chemical Antagonists of Bir1/2 domains of IAP-family anti-apoptotic proteins. [Related pubchem assays (depositor defined):AID1018, AID1449, AID1514, AID1638, AID1749, AID1750, AID488957, AID488963].
The next data set addresses Ephrin type-A receptor 4 (Mus musculus, UniProt Q03137). The data set is described as follows: inhibitors of EphA4 binding to KYL peptide, primary screen, biochemical, colorimetric, mouse EphA4 (AID 689). It counts as functional.
Data set [2] concerns the target G-protein coupled receptor 55 (Homo sapiens, UniProt Q9Y2T6). The data set is described as follows: GPR55 agonists via beta-arrestin recruitment, primary screen, imaging, U2OS cells, beta-arrestin-GFP redistribution (AID 1961). It counts as functional. On the technique in general: Arrestin recruitment assays detect the binding of arrestin to an activated receptor.

The nature of data set [3]: cytotoxicity in HEK-293T cells, dose response, cytotoxicity control for BCR NF-kB inhibitor project, luminescence, B-cell screen hits (AID 489021).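 Note: HEK-293T cells carrying an NF-kB luciferase reporter; cells exposed to compound for about 14 hours before viability readout.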 The data set is classed as functional, cell-based.
The target in data set [4] is T1, Lysosomal acid glucosylceramidase (Homo sapiens, UniProt P04062).
T1 sequence (P04062 whole entry): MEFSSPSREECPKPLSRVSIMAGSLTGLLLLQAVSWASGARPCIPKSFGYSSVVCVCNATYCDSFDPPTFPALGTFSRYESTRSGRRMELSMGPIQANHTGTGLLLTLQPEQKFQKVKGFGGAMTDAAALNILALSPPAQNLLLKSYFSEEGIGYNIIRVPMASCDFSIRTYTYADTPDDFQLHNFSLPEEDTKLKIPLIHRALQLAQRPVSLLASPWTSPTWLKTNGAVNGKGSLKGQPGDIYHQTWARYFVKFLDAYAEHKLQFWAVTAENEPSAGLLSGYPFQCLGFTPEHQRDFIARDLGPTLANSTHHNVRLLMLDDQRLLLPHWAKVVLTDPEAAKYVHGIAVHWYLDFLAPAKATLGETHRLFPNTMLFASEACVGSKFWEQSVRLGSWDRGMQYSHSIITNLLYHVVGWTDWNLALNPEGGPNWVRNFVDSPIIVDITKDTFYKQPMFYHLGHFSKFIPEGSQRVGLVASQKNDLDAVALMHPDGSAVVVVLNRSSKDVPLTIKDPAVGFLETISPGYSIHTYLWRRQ
As to the kind of experiment: Dose response cell-based high throughput screening assay to identify enhancers of beta-glucosidase activity. [Related pubchem assays: 784 ]. It counts as functional.

In data set [5] the target is T2, Calpain-2 catalytic subunit (Sus scrofa, UniProt P43367).
T2 sequence (P43367 whole entry): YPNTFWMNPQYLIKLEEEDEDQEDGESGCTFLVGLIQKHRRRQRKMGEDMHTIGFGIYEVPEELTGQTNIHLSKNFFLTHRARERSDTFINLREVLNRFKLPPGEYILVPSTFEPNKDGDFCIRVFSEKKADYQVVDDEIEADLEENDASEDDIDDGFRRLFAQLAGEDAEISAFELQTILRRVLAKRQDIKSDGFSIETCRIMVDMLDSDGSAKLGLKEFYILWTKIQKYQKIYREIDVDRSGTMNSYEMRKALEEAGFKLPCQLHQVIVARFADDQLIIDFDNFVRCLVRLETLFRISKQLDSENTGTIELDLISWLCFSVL
The data set is described as follows: pig calpain II inhibitor potency, dose response, biochemical, fluorogenic peptide substrate (AID 1420). The data set is classed as functional.

For another data set, the target named is T3, Hexokinase HKDC1 (Homo sapiens, UniProt Q2TB90).
T3 sequence (Q2TB90 whole entry): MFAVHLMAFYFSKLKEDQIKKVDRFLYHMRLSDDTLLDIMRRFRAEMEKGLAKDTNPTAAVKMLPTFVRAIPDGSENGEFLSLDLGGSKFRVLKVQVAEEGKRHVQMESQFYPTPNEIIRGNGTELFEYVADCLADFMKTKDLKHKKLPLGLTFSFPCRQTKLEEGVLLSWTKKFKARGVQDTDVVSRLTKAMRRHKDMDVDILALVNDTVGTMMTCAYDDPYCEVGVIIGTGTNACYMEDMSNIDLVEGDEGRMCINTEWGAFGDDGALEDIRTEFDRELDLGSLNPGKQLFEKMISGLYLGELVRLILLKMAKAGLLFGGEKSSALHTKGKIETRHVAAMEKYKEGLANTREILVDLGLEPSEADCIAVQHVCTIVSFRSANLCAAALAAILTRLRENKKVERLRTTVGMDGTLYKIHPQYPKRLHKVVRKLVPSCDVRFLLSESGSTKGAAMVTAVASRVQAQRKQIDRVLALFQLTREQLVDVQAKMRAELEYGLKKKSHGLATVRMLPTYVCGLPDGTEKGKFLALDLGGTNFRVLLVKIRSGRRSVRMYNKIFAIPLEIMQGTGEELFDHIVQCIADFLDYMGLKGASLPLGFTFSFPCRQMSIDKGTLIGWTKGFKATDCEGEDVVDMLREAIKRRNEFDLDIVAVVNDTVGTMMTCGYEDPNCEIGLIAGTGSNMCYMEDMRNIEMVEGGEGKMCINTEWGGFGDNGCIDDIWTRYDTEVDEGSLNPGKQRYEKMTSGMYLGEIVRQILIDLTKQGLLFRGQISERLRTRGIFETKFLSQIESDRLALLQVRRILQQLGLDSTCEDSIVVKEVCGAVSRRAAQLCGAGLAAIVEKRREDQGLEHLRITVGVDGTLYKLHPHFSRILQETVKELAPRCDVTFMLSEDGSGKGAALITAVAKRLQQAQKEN
As to the kind of experiment: HKDC1 hexokinase activators, dose response, biochemical, W721R variant (AID 504730). The data set is classed as functional.

Another data set deals with T4, Hexokinase-1 (Homo sapiens, UniProt P19367).
T4 sequence (P19367 whole entry): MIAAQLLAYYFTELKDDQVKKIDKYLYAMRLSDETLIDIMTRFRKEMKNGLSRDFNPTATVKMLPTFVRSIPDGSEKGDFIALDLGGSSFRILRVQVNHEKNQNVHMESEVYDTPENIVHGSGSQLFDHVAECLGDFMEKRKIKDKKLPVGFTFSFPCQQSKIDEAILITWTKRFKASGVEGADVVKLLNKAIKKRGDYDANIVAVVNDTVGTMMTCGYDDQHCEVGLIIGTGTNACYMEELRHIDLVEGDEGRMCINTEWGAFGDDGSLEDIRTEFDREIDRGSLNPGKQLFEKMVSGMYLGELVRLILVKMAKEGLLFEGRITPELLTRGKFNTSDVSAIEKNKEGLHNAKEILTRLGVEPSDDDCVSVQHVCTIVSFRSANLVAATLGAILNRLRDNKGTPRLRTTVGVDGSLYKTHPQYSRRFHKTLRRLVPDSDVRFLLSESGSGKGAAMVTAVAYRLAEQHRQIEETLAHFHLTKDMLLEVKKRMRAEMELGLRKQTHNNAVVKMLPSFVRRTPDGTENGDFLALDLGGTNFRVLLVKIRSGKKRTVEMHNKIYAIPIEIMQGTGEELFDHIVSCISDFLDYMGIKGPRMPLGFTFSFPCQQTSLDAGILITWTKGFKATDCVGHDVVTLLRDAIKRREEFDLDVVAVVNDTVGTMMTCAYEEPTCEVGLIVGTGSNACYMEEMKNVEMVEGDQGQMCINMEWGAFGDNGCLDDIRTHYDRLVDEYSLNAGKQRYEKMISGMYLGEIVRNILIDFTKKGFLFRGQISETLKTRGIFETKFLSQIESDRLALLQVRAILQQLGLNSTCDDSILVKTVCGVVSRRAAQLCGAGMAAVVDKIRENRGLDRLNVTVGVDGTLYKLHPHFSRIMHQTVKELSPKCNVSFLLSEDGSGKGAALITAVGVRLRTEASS
As to the kind of experiment: hexokinase 1 activators, dose response, selectivity assay for HKDC1 activator project, biochemical (AID 504762). The data set is classed as functional.

The subject of data set [6] is BJ. The data set is described as follows: cytotoxicity toward BJ-TERT fibroblasts, dose response, cell-based, RAS-independent, luminescence (AID 1933). The data set is classed as functional. The following applies: Homo sapiens.
Data set [7] has as its system BJ. As to the kind of experiment: cells. It counts as functional, cell-based. The following applies: Homo sapiens.
Data set [8] has as its system BJ. The data set is described as follows: cytotoxicity toward BJ-TERT-LT-ST fibroblasts, dose response, cell-based, RAS-independent, luminescence (AID 1935).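 Note: BJ fibroblasts immortalized with TERT plus LT and ST oncogenes.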 It counts as functional. Particulars: Homo sapiens.
Data set [9] in a line: cytotoxicity toward DRD oncogenic fibroblasts, dose response, cell-based, non-viral oncogenic, luminescence (AID 1934). It counts as functional. Particulars: Homo sapiens.
For another data set, the target named is T5, Bcl-2-related protein A1 (Mus musculus, UniProt Q07440).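 Note: confirmatory dose–response counterscreen on Bfl-1, used to check hits from a UBC13 polyubiquitin inhibitor campaign.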
T5 sequence (Q07440 whole entry): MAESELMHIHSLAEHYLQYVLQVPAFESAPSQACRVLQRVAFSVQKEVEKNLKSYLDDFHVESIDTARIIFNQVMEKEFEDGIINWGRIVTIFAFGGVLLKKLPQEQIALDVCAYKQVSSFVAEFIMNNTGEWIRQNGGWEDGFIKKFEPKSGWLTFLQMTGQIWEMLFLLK
The data set is classed as functional.

In data set [10] the target is T6, Ubiquitin-conjugating enzyme E2 N (Homo sapiens, UniProt P61088).
T6 sequence (P61088 whole entry): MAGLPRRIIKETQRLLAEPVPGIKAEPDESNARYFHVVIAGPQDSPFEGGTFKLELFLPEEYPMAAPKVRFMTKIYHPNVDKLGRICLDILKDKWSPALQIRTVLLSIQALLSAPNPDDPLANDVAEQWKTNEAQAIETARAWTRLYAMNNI
It counts as functional.

The target of data set [11] is T6, Ubiquitin-conjugating enzyme E2 N. The data set is classed as functional. This is another data set of the same source.
In data set [12] the target is T7, Type-1 angiotensin II receptor (Homo sapiens, UniProt P30556).
T7 sequence (P30556 whole entry): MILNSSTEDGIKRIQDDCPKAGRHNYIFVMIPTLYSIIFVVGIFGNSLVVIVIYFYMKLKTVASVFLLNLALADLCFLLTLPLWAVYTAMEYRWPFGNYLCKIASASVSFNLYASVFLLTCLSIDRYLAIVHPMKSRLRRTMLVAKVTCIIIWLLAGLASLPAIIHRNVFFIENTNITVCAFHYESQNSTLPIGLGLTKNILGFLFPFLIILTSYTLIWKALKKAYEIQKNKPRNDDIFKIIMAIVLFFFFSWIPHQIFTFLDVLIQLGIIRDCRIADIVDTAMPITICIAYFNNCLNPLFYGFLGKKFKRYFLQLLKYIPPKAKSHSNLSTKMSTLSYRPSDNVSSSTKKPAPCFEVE
As to the kind of experiment: AT1 receptor agonists, dose response, selectivity assay for APJ receptor agonist project, cell-based, uHTS hits (AID 488865).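 Note: beta-arrestin recruitment to AT1 measured by enzyme fragment complementation luminescence.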 The data set is classed as functional.

Data set [13] in a line: Late stage assay provider results from the probe development effort to identify inhibitors of Protein Phosphatase Methylesterase 1 (PME-1): luminescence-based biochemical dose response assay to determine cytotoxicity of inhibitor compounds. [Related pubchem assays (depositor defined):AID2130, AID2143, AID2171, AID2174, AID2177, AID2232, AID2233, AID2291, AID2363, AID2365, AID2366, AID2368, AID2369, AID2371, AID463124, AID463130, AID463131, AID463132, AID463146, AID463149] Panel member name: Fetal Calf Serum. The data set is classed as toxicity.

Data set [14] can be described thus: Late stage assay provider results from the probe development effort to identify inhibitors of Protein Phosphatase Methylesterase 1 (PME-1): luminescence-based […] dose response assay to determine cytotoxicity of inhibitor compounds. [Related pubchem assays (depositor defined):AID2130, AID2143, AID2171, AID2174, AID2177, AID2232, AID2233, AID2291, AID2363, AID2365, AID2366, AID2368, AID2369, AID2371, AID463124, AID463130, AID463131, AID463132, AID463146, AID463149] Panel member name: Serum-free Media. It counts as toxicity.

Chain of Ephrin type-A receptor 4 (Q03137 whole entry): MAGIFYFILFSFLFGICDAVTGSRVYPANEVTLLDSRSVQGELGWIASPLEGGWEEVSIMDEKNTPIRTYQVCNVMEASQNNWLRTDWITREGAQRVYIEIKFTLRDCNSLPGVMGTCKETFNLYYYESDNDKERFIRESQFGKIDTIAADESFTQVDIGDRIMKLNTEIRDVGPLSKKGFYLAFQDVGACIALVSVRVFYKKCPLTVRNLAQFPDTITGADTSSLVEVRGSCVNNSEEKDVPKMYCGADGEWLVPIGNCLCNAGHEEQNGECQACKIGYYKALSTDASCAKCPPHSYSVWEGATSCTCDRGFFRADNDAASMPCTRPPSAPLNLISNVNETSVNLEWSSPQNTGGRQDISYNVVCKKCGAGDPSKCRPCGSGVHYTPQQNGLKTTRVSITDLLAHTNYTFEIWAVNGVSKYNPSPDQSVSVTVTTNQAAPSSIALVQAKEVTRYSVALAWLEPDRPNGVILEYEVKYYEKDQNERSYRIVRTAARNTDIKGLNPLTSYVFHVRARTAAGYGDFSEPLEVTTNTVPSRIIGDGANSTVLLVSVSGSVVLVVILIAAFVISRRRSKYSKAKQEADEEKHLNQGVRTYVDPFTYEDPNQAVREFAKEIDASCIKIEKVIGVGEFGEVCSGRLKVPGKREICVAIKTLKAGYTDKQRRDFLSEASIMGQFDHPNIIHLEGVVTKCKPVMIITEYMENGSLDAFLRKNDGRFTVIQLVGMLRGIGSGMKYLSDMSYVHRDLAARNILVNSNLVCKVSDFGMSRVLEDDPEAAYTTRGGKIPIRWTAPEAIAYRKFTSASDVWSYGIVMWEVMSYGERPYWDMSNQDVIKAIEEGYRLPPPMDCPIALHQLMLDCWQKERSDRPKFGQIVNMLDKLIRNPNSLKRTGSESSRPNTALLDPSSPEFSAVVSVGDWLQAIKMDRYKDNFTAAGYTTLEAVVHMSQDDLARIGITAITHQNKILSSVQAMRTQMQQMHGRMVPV
Chain of E3 ubiquitin-protein ligase XIAP (P98170 whole entry): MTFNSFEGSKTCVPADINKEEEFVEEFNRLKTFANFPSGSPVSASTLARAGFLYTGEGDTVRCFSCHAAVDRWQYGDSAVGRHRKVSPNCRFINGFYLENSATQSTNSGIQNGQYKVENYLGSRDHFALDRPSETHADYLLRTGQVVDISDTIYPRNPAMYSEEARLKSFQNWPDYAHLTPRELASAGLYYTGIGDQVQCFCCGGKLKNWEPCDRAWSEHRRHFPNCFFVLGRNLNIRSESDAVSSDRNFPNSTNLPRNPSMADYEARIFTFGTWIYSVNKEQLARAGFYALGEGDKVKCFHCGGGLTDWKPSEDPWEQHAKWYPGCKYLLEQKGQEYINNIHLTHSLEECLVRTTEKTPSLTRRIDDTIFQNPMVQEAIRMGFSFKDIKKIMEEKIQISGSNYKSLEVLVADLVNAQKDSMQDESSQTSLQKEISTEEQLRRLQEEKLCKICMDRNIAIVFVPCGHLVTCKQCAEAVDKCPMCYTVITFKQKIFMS
Chain of G-protein coupled receptor 55 (Q9Y2T6 whole entry): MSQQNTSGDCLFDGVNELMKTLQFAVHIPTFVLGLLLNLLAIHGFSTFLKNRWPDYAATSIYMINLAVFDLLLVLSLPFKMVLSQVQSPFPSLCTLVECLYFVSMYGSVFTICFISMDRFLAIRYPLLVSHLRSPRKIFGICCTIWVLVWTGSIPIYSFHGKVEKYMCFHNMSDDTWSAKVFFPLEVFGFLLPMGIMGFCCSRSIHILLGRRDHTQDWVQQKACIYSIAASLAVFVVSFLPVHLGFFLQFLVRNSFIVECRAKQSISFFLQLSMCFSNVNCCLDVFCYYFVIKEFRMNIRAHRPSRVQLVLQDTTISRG

A word on the IC50: it is the concentration needed to halve the response being measured. One may read the EC50 as the midpoint of the concentration-response curve. For the molecule `CCC(C)N1C(=O)/C(=C/c2c(NCCCOC(C)C)nc3c(C)cccn3c2=O)SC1=S` (stereo not drawn), the IC50 in data set [1] was > 20 µM (inactive); on Ephrin type-A receptor 4 it was 9.88 µM (active); in data set [3] it was > 80 µM (inactive). Besides, the concentration giving a half-maximal response (EC50) in [2] was 532 nM (active).
On to `O=S(=O)(NC1c2cccc3cccc(c23)C1N1CCNCC1)c1ccccc1` (stereo not drawn), for which the concentration for a half-maximal effect (EC50) in data set [4] was 1.66 µM (active); at Hexokinase HKDC1 it was 11.7 µM (active); on Hexokinase-1, 13.6 µM (active). Besides, in data set [5], the IC50 was < 400 nM (not active).
`Cc1cc(C)c2sc(N(CCCN(C)C)C(=O)c3ccc(S(=O)(=O)N4CCc5ccccc5C4)cc3)nc2c1`: the EC50 with BJ [6] is 1.57 µM (active); in the data set on BJ [7], 9.56 µM (active); in the data set on BJ [8], 2.54 µM (inconclusive); in [9], 3.68 µM (active); in [12], > 100 µM (inactive). In addition, the values for the IC50 (at Bcl-2-related protein A1; in data set [10]; in [11]) were > 20 µM (inactive), 10 µM (active) and 4.64 µM (active), respectively.
As usually defined, the CC50 is the concentration that lowers cell viability or growth by half. Turning to `CC[C@]1(c2ccccc2C)C(=O)N(C(=O)OC)N1C(=O)OC`, the CC50 in [13] and in data set [14] was > 50 µM (inactive) in each case.
